Reference: US20030216569A1, “Method of making HIV protease inhibitors” (priority 1993, published 2003)
Marks after values point to notes of the source that are not given here.

Biological target: HIV-1 protease (Human immunodeficiency virus type 1 group M subtype B, UniProt P04585)
Experiment: Fluorescence HIV-1 Protease Inhibitor Assay (Pandex)
Assay type: biochemical
Set-up: made in house; host or cells: E. coli K12 L507/pHP10D (NRRL B-18560)
Conditions: for Fluorescence Assay IC50 / IC50: normalized to positive control (=1.0), * = a calculated average; for IC50: read-out: Fluorescence Assay IC50 in ng/mL (converted)
Description: A. Preparation of Protease and Gag Fractions
Lyophils of E. coli K12 L507/pHP10D were obtained from the Northern Regional Research Laboratory, Peoria, Ill. 61604, under the accession number NRRL B-18560 (deposited Nov. 14, 1989). The lyophils were decanted into tubes containing 10 ml LB medium (10 g Bacto-tryptone, 5 g Bacto-yeast extract, and 10 g aqueous sodium chloride per liter; the pH was adjusted to 7.5 and incubated at 32° C. overnight).
A small portion of the overnight culture was placed on LB-agar (LB medium with 15 g/L Bacto-agar) plates containing 12.5 micrograms/ml tetracycline in a manner so as to obtain a single colony isolate of E. coli K12 L507/pHP10D. The single colony obtained was inoculated into 10 ml of LB medium containing 12.5 micrograms/ml tetracycline and incubated overnight at 32° C. with vigorous shaking. The 10 ml overnight culture was inoculated into LB medium containing 12.5 micrograms/ml tetracycline and incubated at 32° C. with vigorous shaking until the culture reached mid-log phase. […]
3. Preparation of Protease Fraction
A culture of E. coli K12 L507/pHP10D was grown to mid-log phase at 32° C. in LB media containing 12.5 micrograms/ml tetracycline. The cultivation temperature was quickly elevated to 40° C. to induce gene expression, and the cells were allowed to grow for 2.5 hours at this temperature before the culture was quickly chilled on ice. The cells were centrifuged and the cell pellet was resuspended in 20 ml of 50 mmol MES buffer (pH 6.0) containing 1 mmol EDTA, 1 mmol DTT, 1 mmol PMSF and 10% glycerol (“Buffer A”). Cells were lysed by sonication using a Fischer Model 300 Dismembrator and a microtip probe. Following centrifugation at 27,000×g, the supernatant was diluted to a total volume of 60 ml with Buffer A and loaded onto a 2.0×19 cm QAE-Sepharose column (1 ml/min, 4° C.), that had been equilibrated in Buffer A. The column was washed isocratically for 180 min and then eluted with a gradient eluent of […] aqueous sodium chloride in Buffer A over 120 min. Enzymatic activity was measured by HPLC using the synthetic peptide Ser-Gln-Asn-Tyr-Pro-Ile-Val as described in Margolin et al., Biochem. Biophys. Res. Commun., 167, 554-560 (1990); the production of the p1 peptide (Ser-Gln-Asn-Tyr) was measured.
The active fractions were combined, adjusted to […] 1.2M in ammonium sulfate, and applied to a 2.0×18 cm hexyl agarose column that had been equilibrated in Buffer A containing 1.2M ammonium sulfate. The sample was loaded at a flow rate of 1 ml/min at 4° C., washed with the equilibration buffer for 240 min (1 ml/min) and then eluted using a reverse linear gradient of 1.2-0M ammonium sulfate in Buffer A for 120 min at the same flow rate. The column was then washed isocratically in Buffer A for 120 min.
The active fractions were combined, concentrated to 10 ml using an Amicon stirred cell with a YM-10 membrane and then applied to a MonoS cation exchange column (1.0×10 cm) that had been equilibrated in Buffer A. The sample was loaded at a flow rate of 1 ml/min at 25° C. After washing isocratically for 30 min, the protease was eluted using a linear gradient of 0-0.45M aqueous sodium chloride in Buffer A over 40 min. The column was washed isocratically in Buffer A containing 0.45M aqueous sodium chloride for 30 minutes.
The active fractions were combined and concentrated to 200 microliters using an Amicon stirred cell and a YM-10 membrane and then the protease was applied to a Superose 6 size exclusion column equilibrated in Buffer A containing 0.1M aqueous sodium chloride.

Row | Compound | Fluorescence Assay IC50 [µg/mL] | IC50 [nM] | other results
1 | Cc1ccc(CO)cc1C(=O)N[C@@H](Cc1ccccc1)[C@H](O)Cc1ccccc1C(=O)NC(C)(C)C (relative stereo) [Example 41, [2′R-(2′R*,3′S*)]-N-t-Butyl-2-[2′-hydroxy-3′-phenylmethyl-4′-aza-5′-oxo-5′-(2″methyl-5″-hydroxymethylphenyl)pentyl] benzamide] | 0.006 | – | –
2 | Cc1c(O)cccc1C(=O)N[C@H](CSc1ccc2ccccc2c1)[C@H](O)Cc1ccc2ccccc2c1C(=O)NC(C)(C)C (relative stereo) [Example 48, [2′R-(2′R*,3′S*)]-N-t-Butyl-2-[2′-hydroxy-3′-naphth-2-ylthiomethyl-4′-aza-5′-oxo-5′-(2″-methyl-3″-hydroxyohenyl)pentyl]-1-naphthylamide] | 0.177 | – | –
3 | CC(C)(C)NC(=O)c1ccccc1C[C@@H](O)[C@@H](CSc1ccc2ccccc2c1)NC(=O)c1cccc(O)c1Cl (relative stereo) [Example 56, [2′R-(2′R*,3′S*)]-N-t-Butyl-2-[2′-hydroxy-3′-naphth-2-ylthiomethyl-4′-aza-5′-oxo-5′-(2″-chloro-3″-hydroxyphenyl)pentyl] benzamide] | 0.094 | – | –
4 | CC(C)(C)NC(=O)c1ccccc1C[C@@H](O)[C@H](CSc1ccc2ccccc2c1)NC(=O)c1cccc2cnccc12 (relative stereo) [Example 57, [2′R-(2′R*,3′S*)]-N-t-Butyl-2-[2′-hydroxy-3′-naphth-2-ylthiomethyl-4′-aza-5′-oxo-5′-(isoquinolin-5″-yl)pentyl] benzamide] | – | 1380 | –
5 | Cc1c(O)cccc1C(=O)N[C@H](CSc1ccc2ccccc2c1)[C@H](O)Cc1ccccc1C(=O)NC(C)(C)C (relative stereo) [Example 46, [2′R-(2′R*,3′S*)]-N-t-Butyl-2-[2′-hydroxy-3′-naphth-2-ylthiomethyl-4′-aza-5′-oxo-5′-(2″-methyl-3″-hydroxyphenyl)pentyl] benzamide] | 0.063 | – | –
6 | CC(C)(C)NC(=O)[C@@H]1C[C@@H]2CCCC[C@@H]2CN1C[C@@H](O)[C@H](Cc1ccccc1)NC(=O)C1CCS(=O)(=O)C1 (relative stereo) [Example 88, [3S-(3R*, 4aR*, 8aR*, 2′S*, 3′R*)]-2-[2′-Hydroxy-3′-phenylmethyl-4′-aza-5′-oxo-5′-(tetrahydrothieno-3″-yl-1″,1″-dioxide)pentyl]-decahydroisoquinoline-3-N-t-butyl carboxamide] | – | – | Pandex % at 20 ng/ml (at 20 ng/ml): 28%
7 | CC(C)(C)NC(=O)c1ccccc1CC(O)C(CSc1ccc2ccccc2c1)NC(=O)c1cccc(Cl)c1Cl (stereo not drawn) [Example 54, [2′R-(2′R*,3′S*)]-N-t-Butyl-2-[2′-hydroxy-3′-naphth-2-ylthiomethyl-4′-aza-5′-oxo-5′-(2″,2″-dichlorophenyl)pentyl] benzamide] | – | 129 | –
8 | Cc1ccccc1C(=O)N[C@H](CSc1ccc2ccccc2c1)[C@H](O)Cc1ccccc1C(=O)NC(C)(C)C (relative stereo) [Example 52, [2′R-(2′R*,3′S*)]-N-t-Butyl-2-[2′-hydroxy-3′-naphth-2-ylthiomethyl-4′-aza-5′-oxo-5′-(2″-methylphenyl)pentyl] benzamide] | 0.281 | – | –
9 | [2′R-(2′R*,3′S*)]-N-t-Butyl-2-[2′-hydroxy-3′-naphth-2-ylthiomethyl-4′-aza-5′-oxo-5′-(1″-N(methyl)indol-4″-yl)pentyl] benzamide [Example 69] | – | – | Fluorescence Assay IC35 (concentration of the inhibitor not increased above 15 μg/mL): IC35(15000)** ng/mL
10 | CC(C)(C)NC(=O)c1ccccc1C[C@@H](O)[C@H](CSc1ccc2ccccc2c1)NC(=O)c1cccc2c1CCNC2 (relative stereo) [Example 58, [2′R-(2′R*,3′S*)]-N-t-Butyl-2-[2′-hydroxy-3′-naphth-2-ylthiomethyl-4′-aza-5′-oxo-5′-(1″,2″,3″,4″-tetrahydroisoquinolin-5″-yl)pentyl] benzamide] | – | 309 | –
